Test results reported in US4738979A, “α2 -blocking derivatives of imidazole” (G. D. Searle & Co., priority 1985, dated 1988).
“Also recorded” adds a separate entry of the source. Like-named read-outs stand apart in the source and are kept apart here.

Tests used:
Format in all cases: in vivo
[1] = test system: 3-mercaptopropionic acid (3-MPA)-induced tonic extension in mice; assay: protection against 3-mercaptopropionic acid (3-MPA)-induced tonic extension in mice; details: 100 mg/kg orally, 30 minutes prior to 3-MPA (120 mg/kg s.c.)
Procedure: In the second study the anti-convulsant effect of the compounds of the present invention was examined in two seizure models; bicuculline-induced tonic extension in mice and 3-mercaptopropionic acid (3-MPA)-induced tonic extension in mice.
In the bicuculline study, the ability of the compounds of the present invention to protect against tonic extension (involving rigidity) was evaluated as follows. Each test compound was administered to a group of ten mice at a dose of 10 mg/kg, 3 hours prior to the i.v. administration of bicuculline (0.7 mg/kg). Anticonvulsant activity in this test is expressed as percentage of animals tested. The results are given in Table II, column 6, and indicate that several compounds display significant anticonvulsive activity in this test. The anticonvulsant effect of the compounds has also been tested with respect to the tonic extension induced by 3-mercaptopropionic acid (120 mg/kg subcutaneously) in mice.
In the 3-MPA assay, the compounds of the present invention are administered orally at a dose of 100 mg/kg 30 minutes prior to administration of 3-MPA. Each compound was tested on a group of 5 mice; if more than 1 mouse was protected, a second group of 5 mice was tested.

[2] = test system: 5-methoxy-N,N-dimethyltryptamine-induced head twitching (serotoninergic syndrome); assay: head twitches induced by 5-methoxy-N,N-dimethyltryptamine in mice
Text: The fourth in vivo study evaluated activity of the compounds of the invention on serotonin agonist-induced head twitching (serotoninergic syndrome). The compound 5-methoxy-N,N-dimethyl tryptamine is a serotonin agonist which induces head twitching in mice. The activity of this tryptamine compound is increased by antidepressant drugs. This study evaluated the ability of the compounds of the present invention to influence the effect of the tryptamine-induced head twitching (E. Friedman, et al., Eur. J. Pharmacol., 89, 69-76, 1983).
The compounds to be tested were administered to mice at the dose of 3 mg/kg p.o. either acutely or chronically twice a day continually for 2 weeks. The increased head twitching caused by the tryptamine compound (2 mg/kg i.p.) was observed 1, 24 and 72 hours after the last administration of the test compound.

[3] = test system: clonidine-induced depression of locomotor activity and rearing activity; assay: clonidine-induced depression of locomotor activity, open field test in mice; details: for minimal effective dose: Mus musculus, 2 hours prior to clonidine 0.3 mg/kg p.o.
Text: The third in vivo study evaluation activity of the compounds of the invention on clonidine induced depression of locomotor activity. The previously-discussed study involving clonidine related to its α2 agonist effects on the brain's regulation of the cardiovascular system. The present study involved clonidine α2 agonist effects on central control of locomotor activity. Clonidine inhibits locomotor activity and rearing activity in the mouse. In this "open field" test, mice are pretreated with the compounds of the present invention at doses of 1 to 10 mg/kg p.o. […] Each compound was evaluated for its ability to antagonize the effect of clonidine. […] Compound No. 1 antagonizes clonidine-induced depression of locomotor activity and rearing activity from 1 mg/kg p.o. and from 3 mg/kg p.o., respectively. The effects of chronic administration of compound No. 1 were also evaluated in this test. In this study, groups of 5-6 mice were treated with compound No. 1 (3 mg/kg p.o.) either twice daily for 14 days (chronic) or with one single dose (acute).

| SMILES | anticonvulsant effect versus 3-MPA (in words) [1] | Head Twitches/5 Minutes, percent compared to the vehicle treated group ([2]; acute, 3 mg/kg p.o., 1 h after last treatment, tryptamine compound 2 mg/kg i.p.) [%] | Head Twitches/5 Minutes, percent compared to the vehicle treated group ([2]; chronic, 3 mg/kg p.o. twice a day 2 weeks, 1 h after last treatment) [%] | Head Twitches/5 Minutes, percent compared to the vehicle treated group ([2]; chronic, 3 mg/kg p.o. twice a day 2 weeks, 24 h after last treatment) [%] | Head Twitches/5 Minutes, percent compared to the vehicle treated group ([2]; chronic, 3 mg/kg p.o. twice a day 2 weeks, 72 h after last treatment) [%] | activity in the open field test after chronic administration (in words) ([3]; 3 mg/kg p.o. twice daily 14 days, clonidine 0.15 mg/kg i.p.) | minimal effective dose ([3]; mice, read-out: active dose antagonizing clonidine-induced depression of locomotor activity) [mg/kg] | minimal effective dose ([3]; mice, read-out: active dose antagonizing clonidine-induced depression of rearing activity) [mg/kg] | % Inhibition of the Effect of Clonidine on Locomotor Activity in Mice ([3]; acute, 3 mg/kg p.o., 1 h after last administration, clonidine 0.15 mg/kg i.p.) [%] | % Inhibition of the Effect of Clonidine on Locomotor Activity in Mice ([3]; chronic, 3 mg/kg p.o. twice daily 14 days, 1 h after last administration, clonidine 0.15 mg/kg i.p.) [%] | % Inhibition of the Effect of Clonidine on Locomotor Activity in Mice ([3]; chronic, 3 mg/kg p.o. twice daily 14 days, 24 h after last administration, clonidine 0.15 mg/kg i.p.) [%] | % Inhibition of the Effect of Clonidine on Locomotor Activity in Mice ([3]; chronic, 3 mg/kg p.o. twice daily 14 days, 72 h after last administration, clonidine 0.15 mg/kg i.p.) [%] | accumulation of the compound after chronic administration (in words) ([3]; inferred from open field activity after withdrawal, 14 days twice daily) | activity in the open field test (in words) ([3]; mice, 1 to 10 mg/kg p.o., clonidine 0.3 mg/kg p.o.) |
| --- | --- | --- | --- | --- | --- | --- | --- | --- | --- | --- | --- | --- | --- | --- |
| c1ccc(C(Cc2c[nH]cn2)c2ccccc2)cc1 [Compound 1, 4(5)-(2,2-diphenylethyl)-imidazole] | potent anticonvulsant effect | 171 | 278 | 210 | 211 | at the same level as after acute administration; also recorded: disappeared 24 hours after withdrawal of the drug | ≥ 1 | ≥ 3 | 52 | 59 | 3 | 5 | Accumulation of the compound does not appear to occur | particularly active |
| Clc1ccccc1C(Cc1c[nH]cn1)c1ccccc1 (stereo not shown) [Compound 13, 4(5)-{[2-(2-chlorophenyl)-2-phenyl]ethyl}imidazole] | potent anticonvulsant effect |  |  |  |  |  |  |  |  |  |  |  |  |  |
| Cc1ccc(C)c(C(Cc2c[nH]cn2)c2ccccc2)c1 (stereo not shown) [Compound 16] | potent anticonvulsant effect |  |  |  |  |  |  |  |  |  |  |  |  |  |
